Results: ChEMBL document CHEMBL1201862, “PubChem BioAssay data set” (2004)
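Briefly, cells in 96-well plates were exposed to five compound concentrations for 48 h, and endpoints were estimated by linear interpolation. GI50 is the concentration that inhibits growth by half.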 The source made the active and inactive calls. Cut-off read from the data, not from the text of the source: active = GI50 up to about 1.1 µM and inactive = higher.

Assays:
Test in all cases: growth of human tumour cells (NCI), 48 h
[1] = system: A498
[2] = system: CCRF-CEM
[3] = system: COLO 205
[4] = system: HCT-116
[5] = system: HCT-15
[6] = system: IGROV-1
[7] = system: K562
[8] = system: KM-20L2
[9] = system: KM12
[10] = system: MOLT-4
[11] = system: NCI-H460
[12] = system: OVCAR-3
[13] = system: SF-295
[14] = system: SK-MEL-28
[15] = system: SK-MEL-5
[16] = system: SN12C
[17] = system: SNB-75
[18] = system: SW-620
[19] = system: UACC-257
[20] = system: CAKI-1

SMILES: CSc1nc(SC)c2cnn(CC3CO3)c2n1 (stereo not drawn)
- GI50 [1]: 62.7 µM (inactive)
- GI50 [2]: 12.4 µM (inactive)
- GI50 [3]: 18.7 µM (inactive)
- GI50 [4]: 13.4 µM (inactive)
- GI50 [5]: 25.2 µM
- GI50 [6]: 19.4 µM (inactive)
- GI50 [7]: 26.5 µM (inactive)
- GI50 [8]: 18.2 µM (inactive)
- GI50 [9]: 20.3 µM (inactive)
- GI50 [10]: 2.17 µM (inactive)
- GI50 [11]: 21 µM (inactive)
- GI50 [12]: 25.1 µM (inactive)
- GI50 [13]: 24.6 µM (inactive)
- GI50 [14]: 13.9 µM (inactive)
- GI50 [15]: 13.3 µM (inactive)
- GI50 [16]: 20.2 µM (inactive)
- GI50 [17]: 17.3 µM (inactive)
- GI50 [18]: 11.6 µM (inactive)
- GI50 [19]: 19.2 µM (inactive)

SMILES: Cc1cc(N(CCOS(C)(=O)=O)CCOS(C)(=O)=O)ccc1C=O
- GI50 [1]: 1.85 µM (inactive)
- GI50 [20]: 0.127 µM (active)
- GI50 [2]: 1.08 µM (active)
- GI50 [3]: 1.39 µM (inactive)
- GI50 [4]: 28.9 µM (inactive)
- GI50 [5]: 13.2 µM
- GI50 [6]: 11.7 µM (inactive)
- GI50 [7]: 9.93 µM (inactive)
- GI50 [9]: 14.7 µM (inactive)
- GI50 [10]: 1.61 µM (inactive)
- GI50 [11]: 0.078 µM (active)
- GI50 [12]: 6.19 µM (inactive)
- GI50 [13]: 4.35 µM (inactive)
- GI50 [14]: 3.68 µM (inactive)
- GI50 [15]: 7.78 µM (inactive)
- GI50 [16]: 1.47 µM (inactive)
- GI50 [18]: 0.449 µM (active)
- GI50 [19]: 11.7 µM (inactive)

SMILES: CCOC(=O)C1=C(C)N(c2ccc(OC)cc2)C2(O)C=CC(O)=C3C(=O)c4ccccc4C(=O)C312 (stereo not drawn)
- GI50 [1]: 10.5 µM (inactive)
- GI50 [20]: 8.38 µM (inactive)
- GI50 [2]: 3.4 µM (inactive)
- GI50 [3]: 11.5 µM (inactive)
- GI50 [4]: 11.3 µM (inactive)
- GI50 [5]: 6.71 µM
- GI50 [6]: 3.56 µM (inactive)
- GI50 [7]: 12.6 µM (inactive)
- GI50 [9]: 12.9 µM (inactive)
- GI50 [10]: 3.89 µM (inactive)
- GI50 [11]: 11.5 µM (inactive)
- GI50 [12]: 3.06 µM (inactive)
- GI50 [13]: 8.77 µM (inactive)
- GI50 [15]: 11.4 µM (inactive)
- GI50 [16]: 14.8 µM (inactive)
- GI50 [18]: 13.5 µM (inactive)
- GI50 [19]: 15.7 µM (inactive)

SMILES: O=C(NN1C(=O)C(Cl)C1c1ccc([N+](=O)[O-])cc1)c1ccccc1O (stereo not drawn)
- GI50 [2]: > 100 µM (inactive)
- GI50 [3]: > 100 µM (inactive)
- GI50 [4]: > 100 µM (inactive)
- GI50 [6]: > 100 µM (inactive)
- GI50 [7]: > 100 µM (inactive)
- GI50 [8]: > 100 µM (inactive)
- GI50 [9]: > 100 µM (inactive)
- GI50 [10]: > 100 µM (inactive)
- GI50 [11]: > 100 µM (inactive)
- GI50 [12]: > 100 µM (inactive)
- GI50 [13]: > 100 µM (inactive)
- GI50 [14]: > 100 µM (inactive)
- GI50 [15]: > 100 µM (inactive)
- GI50 [16]: > 100 µM (inactive)
- GI50 [17]: 51.8 µM (inactive)
- GI50 [18]: > 100 µM (inactive)
- GI50 [19]: > 100 µM (inactive)

SMILES: CC(=O)NC(c1nc2cc(C)c(C)cc2[nH]1)c1nc2cc(C)c(C)cc2[nH]1
- GI50 [1]: 17.9 µM (inactive)
- GI50 [20]: 20.3 µM (inactive)
- GI50 [2]: 7.05 µM (inactive)
- GI50 [3]: 18 µM (inactive)
- GI50 [4]: 19.1 µM (inactive)
- GI50 [5]: 21.2 µM
- GI50 [6]: 11.7 µM (inactive)
- GI50 [7]: 1.02 µM (active)
- GI50 [9]: 16 µM (inactive)
- GI50 [10]: 2.86 µM (inactive)
- GI50 [11]: 11.7 µM (inactive)
- GI50 [12]: 13.9 µM (inactive)
- GI50 [13]: 22.4 µM (inactive)
- GI50 [14]: 17.7 µM (inactive)
- GI50 [15]: 15.2 µM (inactive)
- GI50 [16]: 15.9 µM (inactive)
- GI50 [17]: 22.1 µM (inactive)
- GI50 [18]: 22.3 µM (inactive)
- GI50 [19]: 21.3 µM (inactive)

SMILES: COc1cccc2c1C(=O)c1c(O)c3c(c(O)c1C2=O)CC(O)(C(=O)CO)CC3OC1CC(N)C(I)C(C)O1 (stereo not drawn)
- GI50 [1]: 3.53 µM (inactive)
- GI50 [20]: 2.87 µM (inactive)
- GI50 [2]: 1.08 µM (active)
- GI50 [3]: 13.3 µM (inactive)
- GI50 [4]: 0.573 µM (active)
- GI50 [5]: 1.83 µM
- GI50 [6]: 1.88 µM (inactive)
- GI50 [7]: 4.76 µM (inactive)
- GI50 [8]: 7.18 µM (inactive)
- GI50 [9]: > 30.3 µM (inactive)
- GI50 [10]: 0.335 µM (active)
- GI50 [11]: 0.313 µM (active)
- GI50 [12]: > 33.4 µM (inactive)
- GI50 [13]: 2.1 µM (inactive)
- GI50 [14]: 15.2 µM (inactive)
- GI50 [15]: 2.64 µM (inactive)
- GI50 [16]: 2.38 µM (inactive)
- GI50 [17]: 2.52 µM (inactive)
- GI50 [18]: 3.08 µM (inactive)
- GI50 [19]: > 29.3 µM (inactive)

SMILES: CC(C)N1CSC(=S)N(Cc2ccccc2)C1
- GI50 [1]: > 10 µM (inactive)
- GI50 [2]: 2.78 µM (inactive)
- GI50 [3]: 3.94 µM (inactive)
- GI50 [4]: 3.01 µM (inactive)
- GI50 [5]: 3.4 µM
- GI50 [6]: > 10 µM (inactive)
- GI50 [7]: 2.48 µM (inactive)
- GI50 [9]: 3.36 µM (inactive)
- GI50 [10]: 2.63 µM (inactive)
- GI50 [11]: > 10 µM (inactive)
- GI50 [12]: 3.87 µM (inactive)
- GI50 [13]: > 10 µM (inactive)
- GI50 [14]: 3.78 µM (inactive)
- GI50 [15]: 4.66 µM (inactive)
- GI50 [16]: 4.49 µM (inactive)
- GI50 [17]: 2.8 µM (inactive)
- GI50 [18]: 3.18 µM (inactive)

SMILES: c1ccc(C(c2ccccc2)[P+](c2ccccc2)(c2ccccc2)c2ccccc2)cc1
- GI50 [1]: 2.32 µM (inactive)
- GI50 [20]: 2.69 µM (inactive)
- GI50 [2]: 0.317 µM (active)
- GI50 [3]: 0.289 µM (active)
- GI50 [4]: 0.326 µM (active)
- GI50 [5]: 4.62 µM
- GI50 [6]: 0.394 µM (active)
- GI50 [7]: 0.427 µM (active)
- GI50 [8]: 0.374 µM (active)
- GI50 [9]: 0.241 µM (active)
- GI50 [10]: 0.419 µM (active)
- GI50 [11]: 0.456 µM (active)
- GI50 [12]: 0.336 µM (active)
- GI50 [13]: 1.7 µM (inactive)
- GI50 [14]: 0.446 µM (active)
- GI50 [15]: 0.37 µM (active)
- GI50 [16]: 0.592 µM (active)
- GI50 [17]: 0.467 µM (active)
- GI50 [18]: 0.466 µM (active)
- GI50 [19]: 0.348 µM (active)

SMILES: Nc1nc2cc(COc3ccc(C(=O)O)cc3)ccc2nc1-c1ccccc1
- GI50 [20]: > 10 µM (inactive)
- GI50 [2]: > 10 µM (inactive)
- GI50 [3]: > 10 µM (inactive)
- GI50 [5]: > 10 µM
- GI50 [6]: > 10 µM (inactive)
- GI50 [7]: > 10 µM (inactive)
- GI50 [9]: > 10 µM (inactive)
- GI50 [10]: > 10 µM (inactive)
- GI50 [11]: > 10 µM (inactive)
- GI50 [12]: > 10 µM (inactive)
- GI50 [13]: > 10 µM (inactive)
- GI50 [14]: > 10 µM (inactive)
- GI50 [15]: > 10 µM (inactive)
- GI50 [16]: > 10 µM (inactive)
- GI50 [17]: > 10 µM (inactive)
- GI50 [18]: > 10 µM (inactive)
- GI50 [19]: > 10 µM (inactive)

SMILES: Nc1c(S(=O)(=O)O)cc2cc(S(=O)(=O)O)ccc2c1/N=N/c1ccc(-c2ccc(/N=N/c3c(N)c(S(=O)(=O)O)cc4cc(S(=O)(=O)O)ccc34)c(S(=O)(=O)O)c2)cc1
- GI50 [1]: > 100 µM (inactive)
- GI50 [2]: > 89.3 µM (inactive)
- GI50 [3]: > 100 µM (inactive)
- GI50 [4]: > 100 µM (inactive)
- GI50 [5]: > 91.4 µM
- GI50 [6]: 54.7 µM (inactive)
- GI50 [7]: > 100 µM (inactive)
- GI50 [8]: 66.4 µM (inactive)
- GI50 [9]: > 100 µM (inactive)
- GI50 [10]: 95.7 µM (inactive)
- GI50 [11]: > 31.6 µM (inactive)
- GI50 [12]: 71.3 µM (inactive)
- GI50 [13]: > 100 µM (inactive)
- GI50 [14]: > 100 µM (inactive)
- GI50 [15]: > 100 µM (inactive)
- GI50 [16]: > 100 µM (inactive)
- GI50 [17]: 85.5 µM (inactive)
- GI50 [18]: > 100 µM (inactive)
- GI50 [19]: > 100 µM (inactive)

SMILES: COc1cc2cc3c4cc(OC)c(OC)cc4cc[n+]3cc2cc1OC
- GI50 [1]: > 100 µM (inactive)
- GI50 [20]: > 100 µM (inactive)
- GI50 [2]: > 100 µM (inactive)
- GI50 [3]: 78.2 µM (inactive)
- GI50 [4]: > 100 µM (inactive)
- GI50 [5]: > 100 µM
- GI50 [6]: > 100 µM (inactive)
- GI50 [7]: > 100 µM (inactive)
- GI50 [8]: > 57.4 µM (inactive)
- GI50 [9]: > 100 µM (inactive)
- GI50 [10]: > 75.5 µM (inactive)
- GI50 [11]: > 100 µM (inactive)
- GI50 [12]: > 45.5 µM (inactive)
- GI50 [13]: > 100 µM (inactive)
- GI50 [14]: > 100 µM (inactive)
- GI50 [15]: > 100 µM (inactive)
- GI50 [16]: 12.4 µM (inactive)
- GI50 [17]: > 89.3 µM (inactive)
- GI50 [18]: > 100 µM (inactive)
- GI50 [19]: > 100 µM (inactive)
